The values below come from publication PMC3566115, “Interaction Domain of Glycoproteins gB and gH of Marek's Disease Virus and Identification of an Antiviral Peptide with Dual Functions” (PLoS ONE, 2013).

For data set [1], the system named is MDV strain RB1B. The following applies: cited from earlier work; for IC50: MDV plaque formation, previous study, read-out: 50% inhibitory concentration (IC50), plaque formation. The text has this:
Our previous study reported that both glycoproteins gB and gH of the herpesvirus Marek's disease virus (MDV) contain eleven potential heptad repeat domains. […] HR1 and HR2 can form of a six-helix bundle structure, which is known as the virus fusion central core and is believed to bring the viral and cellular membranes closer together. […] This observation is in contrast with our results with MDV and other herpesviruses, [29], [33], in which three N-terminal HRs show ...

Data set [2] deals with MDV strain RB1B. In kind it is cell-based, Marek's disease virus. The following applies: for IC50: plaque formation, CEF cells, co-treatment: 100 pfu MDV incubated with peptide 2 hrs at 37°C, then 5 days in DMEM 2% FBS, triplicate, means ± SD, read-out: antiviral activity IC50; for virucidal activity (in words): virus pre-treatment: virus incubated with peptide at 25 μM for 1 hr at 37°C, then titrated on cell monolayers. How it is done:
Primary chicken embryo fibroblasts (CEFs) were cultured as previously described. CEF-associated MDV strain RB1B,which was obtained from the Shandong Agriculture University and passaged multiple times in primary CEFs was incubated for 2 hrs at 37°C. Following incubation, the virus inoculum on the cells was replaced with DMEM supplemented with 2% FBS, and the cultures were incubated for another 5 days longer Consistent and uniform plaques were observed and counted using an Olympus microscope, and images were captured using DP Controller. CEF-associated MDV from the same passage at 2×10^4 plaque forming units (pfu) was used in both infectivity assays in this study.
All peptides were dissolved in DMEM without FBS and used at a range of concentrations. For the antiviral activities of peptides in the co-treatment assay, 100 pfu of MDV was incubated with the peptide at different concentrations for 2 hrs at 37°C. Following incubation, the virus-peptide mixtures on the cells were replaced with DMEM supplemented with 2% FBS, and the cultures were incubated for 5 days. At the end of this period, 50% inhibitory concentrations (IC50) values were calculated. […] For all treatments, unpenetrated virus was inactivated in a low pH buffer after the 45 min incubation with cells at 37°C. The monolayers were incubated for 5 days at 37°C in DMEM supplemented with 2% FBS. The ratio of plaque counts to the no peptide sample control is reported as the percentage of plaque formation (by arithmetic conversion of the mean percent plaque formation). The results are expressed as the average of triplicates ± the standard deviation, and all experiments were performed in parallel with each peptide and a non-specific peptide (i.e., scramble).

The conditions of data set [3]: individual peptides; previous study; cited from earlier work. The text has this: In addition, the gBH1 peptide forms a homotrimeric structure with a molecular weight of 10.7 kDa. gHH3 adopts a monomer formation with a molecular weight of 3.8 kDa, and gHH1 forms a homotetramer with a molecular weight of approximately 12.1 kDa. Gel filtration was used to confirm the interactions between peptides. […] As show ...

Data set [4] has as its target gH-derived HR3 peptide (gHH3) (Marek's disease virus strain RB1B). Description: SEC.
For data set [5] the target is unchanged.
Data set [6] shares this target. Description: SEC. The source holds these as a separate data set. In general terms: Size exclusion chromatography separates by hydrodynamic size, large species first.
Data set [7] addresses gB-derived HR1 peptide (gBH1) (Marek's disease virus strain RB1B). Description: SEC.

Where “and” joins values, the source holds several entries; their conditions need not be identical. Equal entries are not always repeated. Entries after “also recorded” stand apart in the source; their conditions may differ. Where two headings read alike, the source gives them in different places. Where no end group is shown, it is not given here.

Chain of gB-derived HR1 peptide (gBH1) (P18538 340-367 limits assumed): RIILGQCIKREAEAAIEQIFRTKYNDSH

Take “NADIIKSLIRKTIINASKNTASLSILQHLYVLRS [gHH3]”: in the data set on MDV strain RB1B [1], the IC50 was less than 12 µM. Further, in the data set with MDV strain RB1B [2], the IC50 was determined as 12.2 ± 0.28 µM and the “virucidal activity (in words)” value is reported as “no or low virucidal activity”. In data set [3], the “Molecular mass of individual peptide in solution by gel filtration” value (“Molecular mass of individual peptide” below) was 3.8 kDa and the “Molecular state of individual peptide” value is “Monomer”.
As for “KKNEEIIKKLEEKTKKNEEKNKKSEEILKKLEELRKK [gHH3-EK]”, in the data set on MDV strain RB1B [2], the IC50 came out at 6.3 ± 1.16 µM.
On to `CC[C@H](C)[C@H](NC(=O)[C@H](C)NC(=O)[C@H](C)NC(=O)[C@H](CCC(=O)O)NC(=O)[C@H](C)NC(=O)[C@H](CCC(=O)O)NC(=O)[C@H](CCCNC(=N)N)NC(=O)[C@H](CCCCN)NC(=O)[C@@H](NC(=O)[C@H](CS)NC(=O)[C@H](CCC(N)=O)NC(=O)CNC(=O)[C@H](CC(C)C)NC(=O)[C@@H](NC(=O)[C@@H](NC(=O)[C@@H](N)CCCNC(=N)N)[C@@H](C)CC)[C@@H](C)CC)[C@@H](C)CC)C(=O)N[C@@H](CCC(=O)O)C(=O)N[C@@H](CCC(N)=O)C(=O)N[C@H](C(=O)N[C@@H](Cc1ccccc1)C(=O)N[C@@H](CCCNC(=N)N)C(=O)N[C@H](C(=O)N[C@@H](CCCCN)C(=O)N[C@@H](Cc1ccc(O)cc1)C(=O)N[C@@H](CC(N)=O)C(=O)N[C@@H](CC(=O)O)C(=O)N[C@@H](CO)C(=O)N[C@@H](Cc1c[nH]cn1)C(=O)O)[C@@H](C)O)[C@@H](C)CC` [gBH1], for which the IC50 in the data set on MDV strain RB1B [1] is less than 12 µM. In addition, in data set [3], the “Molecular mass of individual peptide” value was 10.7 kDa and the “Molecular state of individual peptide” value is listed as “homotrimeric; also recorded: Trimer”.
Consider “EERKKLGEEIKKEAEEAKKQIEETKKNDEE [gHB1-EK]”, for which the IC50 in the data set with MDV strain RB1B [2] was 8.7 ± 1.29 µM.
As a reminder, the stoichiometry N is the number of molecules, sites or subunits per partner or assembly. As for gB-derived HR1 peptide (gBH1), the stoichiometry N in data set [4] was determined as 1; in data set [6], 3. For the same molecule, in data set [5], the antiviral activity IC50 (plaque formation, MDV on CEF cells) of the mixture of the three peptides gHH1+gHH3+gBH1, the same level as gHH1 alone is 4.7 µM.
Take HMNASDMEIKSYINMIESVEESSNYDF [gHH1]: the IC50 with MDV strain RB1B [1] was less than 12 µM. Moreover, the “blocking of viral infection in co-treatment and post-treatment assays (in words)” value in the data set on MDV strain RB1B [1] (virus co-treatment (co) and post-treatment (post)) is recorded as “blocked viral infection”. Moreover, in the data set with MDV strain RB1B [2], the IC50 stood at 4.1 ± 0.26 µM and the “virucidal activity (in words)” value was “no or low virucidal activity”. In data set [3], the “Molecular mass of individual peptide” value was “approximately 12.1 kDa and 12.1 kDa”; the “Molecular state of individual peptide” value was “homotetramer; also recorded: Tetramer”.
As for gH-derived HR1 peptide (gHH1), the stoichiometry N in data set [7] was determined as 1; in data set [4] it was 3; in data set [6] it was 1.
